According to patent US11524960B2, “Heterobicyclic inhibitors of MAT2A and methods of use for treating cancer” (AGIOS PHARMACEUTICALS, INC., priority 2018, dated 2022):

How the values were obtained:
HCT116 MTAP−/− = assay: Inhibition of cellular proliferation (Cell Titer Glo), HCT116 MTAP−/−; type: cell-based, human; details: Homo sapiens, HCT-116, 96 h, 4 days, IC50 score, read-out: 4 Day Relative Growth Inhibition (MTAP −/−; Example 277)
Procedure: (§1) Test compound impact on cancer cell growth was assessed by treating cancer cells with compound for 4 days and then measuring proliferation using an ATP-based cell proliferation readout (Cell Titer Glo, Promega Corporation).
(§2) In a typical assay an isogenic pair of HCT116 human colon carcinoma cell lines which vary only in MTAP deletion status (HCT116 MTAP+/+ and HCT116 MTAP−/−) were plated in 96-well dishes at appropriate cell density. Following 24 hours, cells were then treated with the candidate MAT2A inhibitor. Prior to addition to cells, the compound was first serially diluted in 100% DMSO, typically as a 3-fold serial dilution starting at 500× top dose with 10 dose points including DMSO only control. Compound was then transferred to a working stock plate in cell culture media by adding 5 μl of compound in DMSO to 495 μl of cell culture media. This working stock was then added to cells via a further 5-fold dilution, by adding 25 μl of working stock to 100 μl of cells in culture media. Following compound addition, cells were incubated at 37° C./5% C02 for 4 days.
(§3) To measure inhibition of cellular proliferation, cells were allowed to equilibrate to room temperature for 30 minutes, and were then treated with 125 μl of Cell Titer Glo reagent. The plate was then covered with aluminum foil and shaken for 15 minutes to ensure complete mixing and full cell lysis. Luminescent signal was then measured using a plate-based luminometer Veritas version 1.9.2 using ATP standard curve to confirm assay reproducibility from run to run. This luminescence measure was converted to a proliferation index by subtracting from each data point the ATP luminescence signal measured from a bank (no cells) well and dividing by the ATP luminescence signal measured in 0.2% DMSO control well adjusted for signal in blank well. Compound activity was then represented as a percentage change in proliferation relative to a within-plate DMSO control against log10 of compound concentration in molar (M) units.

HCT116 MTAP+/+ = assay: Inhibition of cellular proliferation (Cell Titer Glo), HCT116 MTAP+/+; type: cell-based, human; details: Homo sapiens, HCT-116, 96 h, 4 days, IC50 score, read-out: 4 Day Relative Growth Inhibition (MTAP +/+; Example 277)
Procedure: as §1, §2, §3

MAT2A homodimer = biological target: T1, MAT2A homodimer (Homo sapiens, UniProt P31153); assay: Biochemical assay: inhibition of MAT2A (phosphate release, PiColorLock Gold); details: MAT2A IC50 score; read-out: Enzyme Inhibition (Example 275)
T1 construct: inferred from Ni sepharose purification and imidazole elution; made in house; host or cells: Sf9 insect cells, recombinant baculovirus (Bac to Bac, pFASTBAC1)
Method in brief: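 Baculovirus/Sf9-expressed, Ni-purified MAT2A at 4 µg/mL was preincubated with compound for 60 min at 25 °C in 50 mM Tris pH 8.0, 50 mM KCl, 15 mM MgCl2, 0.3 mM EDTA, 0.005% BSA. Substrate mix (500 μM ATP, 400 μM L-methionine) was added and the reaction ran 60 min at 25 °C. Phosphate released stoichiometrically with SAM was measured colorimetrically against a phosphate standard curve.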

[1] = tested on: SAM in HCT116 human colon carcinoma cell line engineered to delete the MTAP gene (MTAP −/−); assay: Cellular assay of target engagement (SAM) by LC-MS/MS; type: cell-based; details: Homo sapiens, HCT-116, 72 h, IC50 score, read-out: Cell 72 h SAM Inhibition (MTAP −/−; Example 276)
Procedure: Measurement of MAT2A activity in cells was made by direct quantitation of the abundance of the product of its enzymatic activity, SAM. Cancer cells were treated with candidate MAT2A inhibitors for a suitable incubation period, and the cells were then lysed using a reagent which quenched any further enzyme activity. Soluble metabolites including SAM were collected and SAM itself was directly measured from the lysate using quantitative LC-MS/MS.
A typical assay was performed using an HCT116 human colon carcinoma cell line which was genetically engineered to delete the MTAP gene (commercially available from Horizon Discovery). This cell line was utilized because it was determined that loss of the MTAP gene predicts sensitivity to MAT2A inhibitors. Cells were plated in 96-well dishes at appropriate cell density. Following 24 hours, cells were then treated with the candidate MAT2A inhibitor. Prior to addition to cells, the compound was first serially diluted in 100% DMSO, typically as a 3-fold serial dilution starting at 500× top dose with 10 dose points including DMSO only control. Compound was then transferred to a working stock plate in cell culture media by adding 5 μl of compound in DMSO to 495 μl of cell culture media. This working stock was then added to cells via a further 5-fold dilution, by adding 25 μl of working stock to 100 μl of cells in culture media. Following compound addition, cells were incubated at 37° C./5% CO2 for 72 hrs.
To quantitate SAM levels following compound treatment, cells were gently washed once in Ammonium Carbonate buffer (75 mM at pH 7.4), placed on dry ice, and lysed with metabolite extraction buffer (80% cold methanol and 20% water (v/v) with acetic acid at 1 M final concentration with 200 ng/mL deuterated d3-SAM as internal control). Following centrifugation at 4° C. at 3,200 rpm for 30 minutes, the supernatant was collected and stored at −80° C. until analysis by Liquid Chromatography with tandem Mass Spectrometry (LC-MS/MS). LC-MS/MS analysis was performed using an API6500 Mass Spectrometer (Sciex, Framingham, Mass., USA) operating in positive ion spray mode and equipped with a Waters UPLC Acquity (Waters, Milford, Mass., USA) BEH Amide column. Multiple Reaction Monitoring data was acquired for SAM and the d3-SAM standard, using a mass transition pair at m/z 399.2→250.1 and 402.2→250.1, respectively. In a typical LC-MS/MS analysis, the initial flow rate was 0.5 ml/min of 25% mobile phase A (acetonitrile and water at 5:95 (v/v) with 1% formic acid and 10 mM ammonium acetate) and 75% mobile phase B (acetonitrile and water at 95:5 (v/v) with 1% formic acid and 10 mM ammonium acetate), 0.2-0.5 minutes with 75%-35% mobile phase B, 25%-65% mobile phase A, at 0.5 min 65% mobile phase A and 35% mobile phase B, 1.0-1.1 minutes with 35%-75% mobile phase B, 65%-25% mobile phase A, at 1.1 min 25% mobile phase A and 75% mobile phase B with a total run time of 1.5 minutes.

T1 sequence (P31153 whole entry): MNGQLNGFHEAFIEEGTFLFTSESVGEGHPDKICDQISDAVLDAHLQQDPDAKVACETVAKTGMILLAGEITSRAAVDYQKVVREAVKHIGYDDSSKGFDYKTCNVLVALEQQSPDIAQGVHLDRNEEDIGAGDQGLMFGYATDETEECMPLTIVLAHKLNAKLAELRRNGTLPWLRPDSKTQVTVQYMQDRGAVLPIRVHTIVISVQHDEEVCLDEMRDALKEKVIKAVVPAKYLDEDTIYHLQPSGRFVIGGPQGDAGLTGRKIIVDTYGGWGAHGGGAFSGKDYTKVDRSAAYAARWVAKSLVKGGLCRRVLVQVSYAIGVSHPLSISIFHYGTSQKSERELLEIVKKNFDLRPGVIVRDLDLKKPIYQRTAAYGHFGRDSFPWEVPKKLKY

IC50 (HCT116 MTAP−/−) [nM] | IC50 (HCT116 MTAP+/+) [nM] | IC50 (MAT2A homodimer) [nM] | IC50 [1] [nM] | SMILES
< 100 | > 10000 | < 100 | < 100 | CC(C)(O)Cn1cc2cc(-n3cc4cnc(NCC(F)(F)F)nc4c(-c4ccc(Cl)cc4)c3=O)ccc2n1 [Example 101-A]
< 100 | 100 to 10000 | < 100 | < 100 | CCOc1ccc2cn(-c3ccc4ncn(C)c4c3)c(=O)c(-c3ccc(C(F)(F)F)nc3)c2n1 [Example 226, 2-ethoxy-6-(1-methyl-1H-benzo[d]imidazol-6-yl)-8-(6-(trifluoromethyl)pyridin-3-yl)-1,6-naphthyridin-7(6H)-one]
100 to 10000 | 100 to 10000 | < 100 | < 100 | Cn1cc2cc(-n3cc4ncc(OCC(F)F)nc4c(-c4ccc(OC(F)F)nc4)c3=O)ccc2n1 [Example 144-A]
< 100 | > 10000 | < 100 | < 100 | CCn1cc2cc(-n3cc4cnc(NCC(F)(F)F)nc4c(-c4ccc(OC(F)F)cc4)c3=O)ccc2n1 [Example 152, 8-(4-(difluoromethoxy)phenyl)-6-(2-ethyl-2H-indazol-5-yl)-2-((2,2,2-trifluoroethyl)amino)pyrido[4,3-d]pyrimidin-7(6H)-one]
100 to 10000 | 100 to 10000 | < 100 | < 100 | Cn1cc2cc(-n3cc4ccc(OCC(F)(F)F)nc4c(-c4ccc(OC(F)(F)F)nc4)c3=O)ccc2n1 [Example 131-A]
100 to 10000 | 100 to 10000 | < 100 | < 100 | CCOc1cnc2cn(-c3ccc4nn(C)cc4c3)c(=O)c(-c3ccc(OC(F)F)nc3)c2n1 [Example 149-A]
100 to 10000 | > 10000 | < 100 | < 100 | CCOc1ccc2cn(-c3ccc4nnccc4c3)c(=O)c(-c3ccc(Cl)cc3)c2n1 [Example 245, 8-(4-chlorophenyl)-6-(cinnolin-6-yl)-2-ethoxy-1,6-naphthyridin-7(6H)-one]
< 100 | 100 to 10000 | < 100 | < 100 | Cn1cc2cc(-n3cc4ccc(OCC(F)(F)F)nc4c(-c4ccc(C(F)F)nc4)c3=O)ccc2n1 [Example 118-A]
< 100 | > 10000 | < 100 | < 100 | Cn1cc2cc(-n3cc4ccc(NCC(F)(F)F)nc4c(-c4ccc(C(F)(F)F)cc4)c3=O)ccc2n1 [Example 213, 6-(2-methyl-2H-indazol-5-yl)-2-((2,2,2-trifluoroethyl)amino)-8-(4-(trifluoromethyl)phenyl)-1,6-naphthyridin-7(6H)-one]
< 100 | 100 to 10000 | < 100 | < 100 | CCOc1ccc2cn(-c3ccc4ncn(C)c4c3)c(=O)c(-c3ccc(NC)nc3)c2n1 [Example 111-A]
< 100 | > 10000 | < 100 | < 100 | Cn1cc2cc(-n3cc4ccc(NCC(F)(F)F)nc4c(-c4ccc(Cl)cc4)c3=O)ccc2n1 [Example 236, 8-(4-chlorophenyl)-6-(2-methyl-2H-indazol-5-yl)-2-(2,2,2-trifluoroethylamino)-1,6-naphthyridin-7(6H)-one]
100 to 10000 | > 10000 | < 100 | 100 to 1000 | O=c1c(-c2ccc(OC(F)F)cc2)c2nc(NC3CCC3)ncc2cn1-c1ccc2ncccc2c1 [Example 183, 2-(cyclobutylamino)-8-(4-(difluoromethoxy)phenyl)-6-(quinolin-6-yl)pyrido[4,3-d]pyrimidin-7(6)-one]
< 100 | > 10000 | < 100 | < 100 | Cn1cnc2ccc(-n3cc4ccc(NCC(F)(F)F)nc4c(-c4ccc(OC(F)F)cc4)c3=O)cc21 [Example 240, 8-(4-(difluoromethoxy)phenyl)-6-(1-methyl-1H-benzo[d]imidazol-6-yl)-2-(2,2,2-trifluoroethylamino)-1,6-naphthyridin-7(6H)-one]
< 100 | 100 to 10000 | < 100 | < 100 | CCOc1ccc2cn(-c3ccc4nn(C)cc4c3)c(=O)c(-c3ccc(C)nc3)c2n1 [Example 219, 2-ethoxy-6-(2-methyl-2H-indazol-5-yl)-8-(6-methylpyridin-3-yl)-1,6-naphthyridin-7(6H)-one]
< 100 | 100 to 10000 | < 100 | < 100 | Cn1cc2cc(-n3cc4ccc(OCC(F)(F)F)nc4c(-c4ccc(C5CC5)nc4)c3=O)ccc2n1 [Example 113-A]
< 100 | 100 to 10000 | < 100 | < 100 | Cn1cnc2ccc(-n3cc4ccc(OCC(F)(F)F)nc4c(-c4ccc(OC(F)(F)F)nc4)c3=O)cc21 [Example 112-A]
100 to 10000 | 100 to 10000 | < 100 | 100 to 1000 | Cn1cc2cc(-n3cc4ccc(CCC(F)(F)F)nc4c(-c4ccc(Cl)cc4)c3=O)ccc2n1 [Example 138-A, 8-(4-chlorophenyl)-6-(2-methyl-2H-indazol-5-yl)-2-(3,3,3-trifluoropropyl)-1,6-naphthyridin-7(6H)-one]
100 to 10000 | 100 to 10000 | < 100 | < 100 | CCOc1cnc2cn(-c3ccc(OC)cc3)c(=O)c(-c3ccc(OC(F)F)cc3)c2n1 [Example 150-A]
< 100 | > 10000 | < 100 | < 100 | CCNc1ncc2cn(-c3ccc4nn(C)cc4c3)c(=O)c(-c3ccc(OC(F)F)cc3)c2n1 [Example 171, 8-(4-(difluoromethoxy)phenyl)-2-(ethylamino)-6-(2-methyl-2H-indazol-5-yl)pyrido[4,3-d]pyrimidin-7(6H)-one]
< 100 | 100 to 10000 | < 100 | < 100 | Cn1cc2cc(-n3cc4ncc(OCC(F)F)nc4c(-c4ccc(Cl)cc4)c3=O)ccc2n1 [Example 146-A]
